For data set [1], the target named is NAD(P)H dehydrogenase [quinone] 1 (Homo sapiens) (UniProt P15559).
Description: Increased quinone reductase specific activity
The nature of data set [2]: physchem. The conditions noted are these: octanol/water.
Description: Partition coefficient (logP)

In ChEMBL document CHEMBL1141899, “QSAR studies on 1,2-dithiole-3-thiones: modeling of lipophilicity, quinone reductase specific activity, and production of growth hormone” (Bioorg Med Chem Lett, 2005) one finds Log CDQR and logP data, which are given here for 18 compounds.

NAD(P)H dehydrogenase [quinone] 1 (Homo sapiens), sequence (P15559 whole entry): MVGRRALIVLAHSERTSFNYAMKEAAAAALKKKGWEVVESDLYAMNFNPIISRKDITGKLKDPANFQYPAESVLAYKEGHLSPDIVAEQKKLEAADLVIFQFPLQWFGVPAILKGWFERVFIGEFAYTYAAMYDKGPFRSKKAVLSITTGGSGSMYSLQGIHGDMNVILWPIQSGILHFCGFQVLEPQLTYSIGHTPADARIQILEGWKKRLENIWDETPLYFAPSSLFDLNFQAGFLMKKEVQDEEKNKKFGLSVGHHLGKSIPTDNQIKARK

For the compound `Cc1cssc1=S`, the Log CDQR in data set [1] is 1.08.
`S=c1ccss1` displayed a Log CDQR in data set [1] of 0.176.
Turning to `CC(C)(C)c1cc(=S)ss1`, in data set [1], the Log CDQR worked out at 0.699. The logP (commonly a log measure of how a compound divides between an organic and an aqueous phase) in data set [2] turned out to be 3.25.
In data set [1], `COc1ccc(-c2cc(=S)ss2)cc1` displayed a Log CDQR of 1.25.
`Cc1ssc(=S)c1C` had a Log CDQR in data set [1] of 1.34.
Take `NC(=O)c1cc(=S)ss1`: the Log CDQR in data set [1] was 1.3. This compound also came in with a logP in data set [2] of 0.01.
Taken in the same sequence, the figures for `O=C(O)c1cssc1=S` were 1.38 and 1.33.
As to `S=c1cc(-c2ccccc2)ss1`, the Log CDQR in data set [1] is 1.3.
Still for that read-out and setting: for `COc1ccc(-c2ssc(=S)c2C)cc1` the value was 1.58.
`O=C(O)c1cc(=S)ss1`: the Log CDQR in data set [1] came to 1.9. The logP in data set [2] was 1.05.
Compound `NC(=O)c1cssc1=S` gave a Log CDQR in data set [1] of 1.66. The compound further came in with a logP in data set [2] of 0.3.
Consider `CCc1cssc1=S`, for which, in data set [1], the Log CDQR is 0.903.
As for `Cc1cc(=S)ss1`, in data set [1], the Log CDQR amounted to 1.23. Also, the logP in data set [2] worked out at 1.85.
As to `Cc1c(-c2cnccn2)ssc1=S` [OLTIPRAZ], in data set [1], the Log CDQR was determined as 1.34. Also, the logP in data set [2] is 2.79.
For `S=c1sscc1-c1ccccc1`, the Log CDQR in data set [1] came to 0.301.
Same read-out and setting: for `CCc1cc(=S)ss1` the value was 0.903.
In the case of `S=c1ssc2c1CCCCCCCC2`, the Log CDQR in data set [1] was -0.602. This compound came in with a logP in data set [2] of 2.53.
`S=C1CC(c2cc(=S)ss2)SS1` (configuration not stated) had a Log CDQR in data set [1] of 0.342. The same compound had a logP in data set [2] of 1.8.
